Assay results taken from patent publication US9988358B2, “Phenazinium mediators” (Roche Diagnostics Operations, Inc., priority 2014, dated 2018).

Columns and labels:
Format in all cases: physicochemical
[1] = Formal redox potential by cyclic voltammetry in a test strip
Procedure: FIG. 1.) cyclic voltammograms of 1-(3-Carboxy-propionylamino)-5-ethyl-phenazinium (compound of formula (III)). A: Buffer pH 7.0 (blank current), B: 2 mM 1-(3-Carboxy-propionylamino)-5-ethyl-phenazinium in buffer, C: 2 mM 1-(3-Carboxy-propionylamino)-5-ethyl-phenazinium+1.2 mM ascorbic acid in buffer, D: 1.2 mM ascorbic acid in buffer.
The formal redox potential of a typical 1-Acylated amino phenazinium ethosulfate, 1-(3-Carboxy-propionylamino)-5-ethyl-phenazinium (compound of formula (III)), was measured vs. Ag/AgCl at a gold working electrode in a test strip. The cyclic voltammograms show, that a relatively low potential of −100 mV vs. Ag/AgCl is sufficient in order to oxidize the substance.
The quasi reversible oxidation and reduction of the mediator 1-(3-Carboxy-propionylamino)-5-ethyl-phenazinium occurs in a potential range between 0 mV and −500 mV vs. Ag/AgCl via two electron transfer. Ascorbic acid cannot be oxidized in this potential window and the current is similar to the blank current of the pure buffer solution.

[2] = Pot life of mediator formulations; conditions: 48 h vs t=0 in reaction mixture
Procedure: FIG. 3.) Pot life of mediator formulations. Mediators 1-(3-Carboxy-propionylamino)-5-ethyl-phenazinium and 1-(3-Carboxypropoxy)-5-ethylphenazinium were compared in a pot life experiment. Pot life of 1-(3-Carboxy-propionylamino)-5-ethyl-phenazinium (A: 0 h, B: 48 h) and 1-(3-Carboxypropoxy)-5-ethylphenazinium (C:=0 h, D: 48 h) are shown; Linear: linear regression.
Mediators 1-(3-Carboxy-propionylamino)-5-ethyl-phenazinium and 1-(3-Carboxypropoxy)-5-ethylphenazinium were compared in a pot life experiment. Performance of mediators was measured immediately after preparing the reaction mixture (t=0) and after 48 h. […] Therefore, both mediators seem to be very stable in a formulation.

[3] = Reactivity towards ascorbate, decrease of absorption over time; conditions: 0.23 mM compound, room temperature, 0.1 M triethylammonium acetate buffer pH 7, 5 fold molar excess of ascorbate
Procedure: 1-Acetylamino-5-methyl-phenazinium trifluormethanesulfonate, 1-Acetylamino-5-ethyl-phenazinium trifluoroacetate, and 1-(3-Carboxy-propionylamino)-5-ethyl-phenazinium (formula III) were compared regarding their reactivity towards ascorbate. To this end, each 0.23 mM of the respective compound was incubated at room temperature in 0.1 M triethylammonium acetate buffer (pH 7) in the presence of a 5 fold molar excess of ascorbate. Decrease of absorption at 517 nm (1-(3-Carboxy-propionylamino)-5-ethyl-phenazinium) or 512 nm (other two compounds) was recorded over time. Whereas with 1-Acetylamino-5-methyl-phenazinium, the absorption decreased by 12% per minute, the decrease slowed to 7% per minute for 1-Acetylamino-5-ethyl-phenazinium, and to less than 5% for 1-(3-Carboxy-propionylamino)-5-ethyl-phenazinium.

With `CC[n+]1c2ccccc2nc2c(NC(=O)CCC(=O)O)cccc21` [1-(3-Carboxy-propionylamino)-5-ethyl-phenazinium] the “redox potential after adding ascorbic acid” value ([1]; 2 mM mediator + 1.2 mM ascorbic acid in buffer pH 7.0, cyclic voltammetry) was −231 mV vs. Ag/AgCl, the formal redox potential ([1]; gold working electrode in a test strip, physiological conditions (0.9% NaCl), cyclic voltammetry) was −236 mV vs. Ag/AgCl and the “change in current after pot life” value [2] was “no significant decrease in current”. For the same compound, the “decrease of absorption at 517 nm” value [3] was “less than 5%”.
With `CC[n+]1c2ccccc2nc2c(OCCCC(=O)O)cccc21` [1-(3-Carboxypropoxy)-5-ethylphenazinium, reference compound] the “change in current after pot life” value [2] was “no significant decrease in current”.
In the case of `CC[n+]1c2ccccc2nc2c(NC(C)=O)cccc21.O=C([O-])C(F)(F)F` [1-Acetylamino-5-ethyl-phenazinium, 1-Acetylamino-5-ethyl-phenazinium trifluoroacetate], the “decrease of absorption at 512 nm” value [3] is reported as 7 % per minute.
For `CC(=O)Nc1cccc2c1nc1ccccc1[n+]2C.O=S(=O)([O-])C(F)(F)F` [1-Acetylamino-5-methyl-phenazinium, 1-Acetylamino-5-methyl-phenazinium trifluormethanesulfonate], the “decrease of absorption at 512 nm” value [3] was 12 % per minute.
